Reference: US4061757A, “Compounds having juvenile hormone activity” (A/S Cheminova, priority 1971, dated 1977)

Legend:
Tenebrio = details: Table II, known compounds; dose causing abnormal development of 50% of treated pupae; data from Nature, Vol. 232, Aug. 13, 1971; cited from earlier work
Aedes aegypti L = test: Aedes test (same test as for Culex); format: in vivo; details: Table I, mature larvae, loss of 50% of test animals, read-out: IC-50 eclos
Description: (§1) The biological tests are examplified by tests on the yellow mealworm, Tenebrio molitor L, Galleria mellonella L, Culex pipiens L, Aedes aegypti L and Drosophila melanogaster L.
Culex test: The compounds are tested on mature larvae. The concentration (IC-50 eclos.) is given in ppm.
Aedes test: The same test as for Culex.

Tenebrio molitor L = test: Tenebrio test (topical application to pupae, morphological inhibition of adult characters); format: in vivo, Tenebrio molitor L (yellow mealworm); details: Table I; topical, acetone solution, 0.5 to 2 hours old pupae (150 mg), 27° C, 70% RH
Description: as §1
Tenebrio test: The material in question is applied topically to the abdomen of 0.5 to 2 hours old pupae of the said species, as a solution in acetone. The pupae are held at 27° C and 70% RH, ecdysis occuring 5 to 7 days later. The degree of inhibition of adult characters is referred to an arbitrary scale, where a morphologically perfect adult is given the character 0%, and a perfect second pupae 100%. In Table 1 is given the morphological inhibition dose 50% (ID 50 morph.) for some of the chemicals invented, in μg per standard pupa (150 mg). ID 50 morph. refers to specimens showing predominantly adult characters in the front part, pupal characters in the abdomen.
ID50 morph is as said above the dose causing development of individuals showing predominantly adult characters in the front part and pupal characters in the abdomen. It is known that ID50 -doses in general are 10 times greater than ED50 -doses.

[1] = tested on: Drosophila melanogaster L; test: Drosophila test (compound in agar based food, pupae which fail in ecdysis); format: in vivo; details: Table I, in artificial agar based food, pupae failing in ecdysis
Description: as §1
Drosophila test: One ml of acetone solution of the compound to be tested is mixed with an artificial agar based food mixture just before this solidifies. Ten less than one day old adult flies -- five of each sex -- are added, and all abnormalities observed for two generations. Juvenile hormone activity is especially noted in the pupae which fail in ecdysis. EC50 -eclos. is given in ppm.

Culex pipiens L = test: Culex test (mature larvae, loss of 50% of test animals); format: in vivo; details: Table I, read-out: IC-50 eclos.
Description: The biological tests are examplified by tests on the yellow mealworm, Tenebrio molitor L, Galleria mellonella L, Culex pipiens L, Aedes aegypti L and Drosophila melanogaster L. Culex test: The compounds are tested on mature larvae. The concentration (IC-50 eclos.) is given in ppm.

| Compound | ED50 (Tenebrio) | IC50 (inhibition of eclosion) (Aedes aegypti L) | ID-50 morph. (Tenebrio molitor L) | EC-50 eclos [1] | IC50 for inhibition of adult emergence (eclosion) (Culex pipiens L) |
| --- | --- | --- | --- | --- | --- |
| C/C(=C\COc1ccc(C)cc1)CCC1OC1(C)C (centres unmarked) [R CH3, n 1] | 0,05 μg/pupa |  |  |  |  |
| CCc1ccc(OCCC(C)CCC2OC2(C)C)cn1 (centres unmarked) [Compound 38, 6,7-Epoxu-3,7-dimethyl-1l-(6'-ethyl-3'-pyridyloxy)-octane] |  | < 1 µg/mL | 0.005 μg/pupa | > 100 ppm | < 10 µg/mL |
